What was measured:
Plasmodium falciparum = experiment: Antimalarial activity against Plasmodium falciparum; assay type: functional, organism-based
[1] = target: T1, 1-deoxy-D-xylulose 5-phosphate reductoisomerase (Escherichia coli K-12, UniProt P45568); experiment: Inhibition of Escherichia coli DXR
T1 sequence (P45568 whole entry): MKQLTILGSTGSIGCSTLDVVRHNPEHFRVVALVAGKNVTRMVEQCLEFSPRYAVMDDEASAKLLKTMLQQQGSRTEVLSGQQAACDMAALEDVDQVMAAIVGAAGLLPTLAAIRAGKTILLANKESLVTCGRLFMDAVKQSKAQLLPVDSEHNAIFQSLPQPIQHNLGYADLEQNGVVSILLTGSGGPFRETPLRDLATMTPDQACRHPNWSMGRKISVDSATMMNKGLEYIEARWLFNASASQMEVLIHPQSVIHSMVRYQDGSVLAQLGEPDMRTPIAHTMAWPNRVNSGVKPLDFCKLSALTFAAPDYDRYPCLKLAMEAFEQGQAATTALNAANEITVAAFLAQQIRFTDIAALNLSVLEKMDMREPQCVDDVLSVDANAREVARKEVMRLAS

[2] = Half life in plasma; assay type: ADME, cell-free

With COc1ccc([C@@H](CCN(O)C(C)=O)P(=O)(O)O)cc1 the EC50 (Plasmodium falciparum) was 250 nM and the IC50 [1] was 459 nM.
For CC(=O)N(O)CC[C@H](c1ccc(C)cc1)P(=O)(O)O, the EC50 (Plasmodium falciparum) was 250 nM and the IC50 [1] was 396 nM.
CC(=O)N(O)CC[C@H](c1ccccc1)P(=O)(O)O gave an EC50 (Plasmodium falciparum) of 250 nM.
CC(=O)N(O)CC[C@H](c1ccc(Cl)cc1)P(=O)(O)O gave an EC50 (Plasmodium falciparum) of 250 nM and an IC50 [1] of 99 nM.
In the case of CC(=O)N(O)CC[C@H](c1ccc(Cl)c(Cl)c1)P(=O)(O)O, the EC50 (Plasmodium falciparum) is reported as 250 nM and the IC50 [1] is reported as 119 nM.
O=CN(O)CCCc1ccc(Cl)c(Cl)c1 showed an IC50 [1] greater than 100000 nM.
O=P(O)(O)Cc1ccc(Cl)c(Cl)c1 gave an IC50 [1] greater than 100000 nM.
O=CN(O)CCCc1ccncc1 showed an IC50 [1] greater than 100000 nM.
In the case of O=P(O)(O)Cc1ccncc1, the IC50 [1] is reported as 7100 nM.
For O=P(O)(O)Cc1cccnc1, the IC50 [1] was 10000 nM.
With O=c1ccc(-c2ccccc2)cn1O [1-HYDROXY-5-PHENYLPYRIDIN-2(1H)-ONE] the IC50 [1] was 1400 nM.
With O=CN(O)CCCP(=O)(O)O [FOSMIDOMYCIN] the half-life [2] was 1 h and the EC50 (Plasmodium falciparum) was 1100 nM.

Reference: ChEMBL document CHEMBL1649106, “Structures of 1-Deoxy-D-Xylulose-5-Phosphate Reductoisomerase/Lipophilic Phosphonate Complexes” (ACS Med Chem Lett, 2011)
